Several values for one entry are separate records, joined by “and”; a condition that tells them apart may be missing. Identical values can stand only once.
Tests used:
[1] = target: T1, endogenous CRTC2 / CBP interaction (Mus musculus, UniProt P45481+Q3U182); assay: Co-immunoprecipitation by anti-CRTC2 antibody, primary hepatocytes: CBP; assay type: cell-based
T1 construct: endogenous in cells; host or cells: mouse primary hepatocytes
Protocol: Fig. 2 APC blocks interaction between CREB and CRTC2. a Analysis of GST-CREB immunoprecipitated with overexpressed FLAG-CRTC2 from the lysates of HEK293T cells. APC (10 μM) was added to the culture media for 1 h and the following IP mixture. The relative gray density of FLAG in GST-pull-down fraction is shown as a bar graph (bottom). One of three independent experiments is presented (top, n = 3). Data are represented as mean ± SEM); P values were determined by one-way ANOVA followed Dunnett’s multiple comparisons test. b Analysis of HA-CRTC2 immunoprecipitated with endogenous CREB from primary hepatocyte lysates. […] Data are represented as mean ± SEM; P values were determined by one-way ANOVA followed Dunnett’s multiple comparisons test. c Immunoblotting analysis of endogenous CREB, CRTC2, and CBP interaction by an anti-CRTC2 antibody from the lysate of primary hepatocytes. […] Data are represented as mean ± SEM; P values were determined by two-way ANOVA followed Bonferroni’s multiple comparisons test. d Immunoblotting analysis of protein GST-CREB recovered HIS-CRTC2-S171A proteins purified from E. coli. […] Data are represented as mean ± SEM; P values were determined by one-way ANOVA followed Dunnett’s multiple comparisons test (compared with APC = 0). […]

[2] = Blood chemistry (plasma hormones by ELISA); assay type: in vivo, mouse
Protocol: The plasma hormone levels of insulin and ghrelin were measured by ELISA kits from Millipore, glucagon and leptin were determined by ELISA kits from R&D.

[3] = DIO mice, APC 10mg/kg, group mean, n=6
[4] = DIO mice, APC 10mg/kg, individual mouse
[5] = DIO mice, APC 20mg/kg, individual mouse

T1 sequence (Q3U182 2-692 limits assumed): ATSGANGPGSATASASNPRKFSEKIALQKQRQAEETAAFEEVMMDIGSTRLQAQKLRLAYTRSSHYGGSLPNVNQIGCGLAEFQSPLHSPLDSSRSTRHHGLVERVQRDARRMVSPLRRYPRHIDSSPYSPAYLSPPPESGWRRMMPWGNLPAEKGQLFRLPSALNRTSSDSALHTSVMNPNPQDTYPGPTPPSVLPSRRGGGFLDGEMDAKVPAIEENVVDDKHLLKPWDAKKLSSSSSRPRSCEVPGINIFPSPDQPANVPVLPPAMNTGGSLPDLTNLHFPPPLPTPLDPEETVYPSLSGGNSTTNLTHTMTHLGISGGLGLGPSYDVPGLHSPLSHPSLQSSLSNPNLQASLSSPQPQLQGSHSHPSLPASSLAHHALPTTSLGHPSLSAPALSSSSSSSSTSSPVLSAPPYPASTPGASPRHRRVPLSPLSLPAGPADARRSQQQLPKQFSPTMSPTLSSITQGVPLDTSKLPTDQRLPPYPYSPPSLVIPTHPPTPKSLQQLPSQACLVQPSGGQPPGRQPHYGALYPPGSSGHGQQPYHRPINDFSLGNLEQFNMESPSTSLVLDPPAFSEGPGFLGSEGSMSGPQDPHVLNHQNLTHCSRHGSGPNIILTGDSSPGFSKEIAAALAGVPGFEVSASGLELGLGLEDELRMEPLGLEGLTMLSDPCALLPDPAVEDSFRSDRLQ
T1 sequence (P45481 2-2441 limits assumed): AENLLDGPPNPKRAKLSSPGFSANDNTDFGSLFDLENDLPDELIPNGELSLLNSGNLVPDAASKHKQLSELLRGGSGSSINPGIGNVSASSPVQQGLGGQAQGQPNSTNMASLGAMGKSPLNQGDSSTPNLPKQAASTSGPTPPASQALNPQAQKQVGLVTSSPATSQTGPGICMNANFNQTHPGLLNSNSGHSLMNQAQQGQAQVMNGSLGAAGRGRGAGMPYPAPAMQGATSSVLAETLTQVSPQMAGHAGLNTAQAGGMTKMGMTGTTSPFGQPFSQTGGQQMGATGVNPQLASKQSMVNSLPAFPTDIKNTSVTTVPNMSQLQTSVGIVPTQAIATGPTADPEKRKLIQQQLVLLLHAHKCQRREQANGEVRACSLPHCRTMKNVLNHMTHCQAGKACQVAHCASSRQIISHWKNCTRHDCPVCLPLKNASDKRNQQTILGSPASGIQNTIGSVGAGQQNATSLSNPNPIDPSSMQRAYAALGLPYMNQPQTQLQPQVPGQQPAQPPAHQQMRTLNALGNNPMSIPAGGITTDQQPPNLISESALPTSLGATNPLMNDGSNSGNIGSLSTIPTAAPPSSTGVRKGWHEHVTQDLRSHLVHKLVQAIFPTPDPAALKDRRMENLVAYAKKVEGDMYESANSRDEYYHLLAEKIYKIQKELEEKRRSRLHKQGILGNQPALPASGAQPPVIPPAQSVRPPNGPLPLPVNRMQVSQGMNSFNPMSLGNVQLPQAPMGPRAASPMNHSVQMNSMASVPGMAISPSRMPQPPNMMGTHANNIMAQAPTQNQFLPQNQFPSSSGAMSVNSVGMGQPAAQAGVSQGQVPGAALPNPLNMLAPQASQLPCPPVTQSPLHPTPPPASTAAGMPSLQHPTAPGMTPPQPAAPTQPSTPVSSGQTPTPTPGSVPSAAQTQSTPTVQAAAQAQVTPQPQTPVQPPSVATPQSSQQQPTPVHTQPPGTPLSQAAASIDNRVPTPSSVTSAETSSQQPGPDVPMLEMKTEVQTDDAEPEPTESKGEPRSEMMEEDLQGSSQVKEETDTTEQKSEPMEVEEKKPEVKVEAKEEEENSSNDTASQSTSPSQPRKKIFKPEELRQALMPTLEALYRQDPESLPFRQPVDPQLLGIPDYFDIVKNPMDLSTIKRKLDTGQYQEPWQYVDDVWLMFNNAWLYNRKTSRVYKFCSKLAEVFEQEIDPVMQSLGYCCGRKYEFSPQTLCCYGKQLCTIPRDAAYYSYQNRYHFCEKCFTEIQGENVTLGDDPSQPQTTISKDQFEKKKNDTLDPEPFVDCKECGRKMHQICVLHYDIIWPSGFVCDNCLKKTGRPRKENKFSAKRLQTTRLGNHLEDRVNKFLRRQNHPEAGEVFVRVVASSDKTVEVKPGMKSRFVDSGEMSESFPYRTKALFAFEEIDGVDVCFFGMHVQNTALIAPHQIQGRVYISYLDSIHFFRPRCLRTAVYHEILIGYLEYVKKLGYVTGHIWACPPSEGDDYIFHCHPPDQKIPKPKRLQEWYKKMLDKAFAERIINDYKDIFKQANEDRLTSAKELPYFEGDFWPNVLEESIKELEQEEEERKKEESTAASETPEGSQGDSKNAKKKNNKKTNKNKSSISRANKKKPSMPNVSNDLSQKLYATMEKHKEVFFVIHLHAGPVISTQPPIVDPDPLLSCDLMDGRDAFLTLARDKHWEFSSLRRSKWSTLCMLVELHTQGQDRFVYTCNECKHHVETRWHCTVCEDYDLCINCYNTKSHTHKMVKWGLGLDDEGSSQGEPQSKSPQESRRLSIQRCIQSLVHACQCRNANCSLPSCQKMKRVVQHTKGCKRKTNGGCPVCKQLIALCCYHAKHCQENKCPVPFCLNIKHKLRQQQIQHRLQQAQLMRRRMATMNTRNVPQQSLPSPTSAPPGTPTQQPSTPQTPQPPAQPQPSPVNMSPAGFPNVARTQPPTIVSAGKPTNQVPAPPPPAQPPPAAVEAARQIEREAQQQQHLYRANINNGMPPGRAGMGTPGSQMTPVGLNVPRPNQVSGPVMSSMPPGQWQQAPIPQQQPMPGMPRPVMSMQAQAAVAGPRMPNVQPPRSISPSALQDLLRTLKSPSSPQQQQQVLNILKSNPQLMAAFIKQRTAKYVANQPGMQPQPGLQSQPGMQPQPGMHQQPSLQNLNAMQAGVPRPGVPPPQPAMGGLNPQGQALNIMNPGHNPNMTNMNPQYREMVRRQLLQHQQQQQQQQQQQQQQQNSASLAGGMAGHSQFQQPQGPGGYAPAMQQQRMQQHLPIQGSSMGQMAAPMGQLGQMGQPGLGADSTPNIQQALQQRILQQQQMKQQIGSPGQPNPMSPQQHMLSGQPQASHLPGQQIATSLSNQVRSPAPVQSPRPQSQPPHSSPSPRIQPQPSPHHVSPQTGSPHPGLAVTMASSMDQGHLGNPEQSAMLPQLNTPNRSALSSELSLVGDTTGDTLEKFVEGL

## CC(C)=CCc1cc(C=CC(=O)O)cc(CC=C(C)C)c1O [APC, 3,5-diprenyl-4-hydroxycinnamic acid]
[1]; Fig 2c replicates, APC+ (10 μM)
  CBP/CRTC2 band gray signal, CRTC2-COIP fraction: 0.6163 and 0.6152 and 0.6031
[1]; primary hepatocytes, APC 10 μM
  interaction between endogenous CRTC2 and CBP: little effect
[2]; DIO and db/db mice
  plasma insulin and glucagon levels: without a change
[2]; DIO mice
  leptin levels: not significant
[2]; [3]
  plasma glucagon in DIO, mean: 109 ng/dL
  plasma leptin in DIO, mean: 54.89 ng/mL
[2]; [4]
  plasma glucagon in DIO: 116.57 ng/dL and 100.35 ng/dL and 100.46 ng/dL and 94.57 ng/dL and 118.78 ng/dL and 123.34 ng/dL
  plasma leptin in DIO: 54.49 ng/mL and 52.07 ng/mL and 53.5 ng/mL and 46.64 ng/mL and 59.49 ng/mL and 63.13 ng/mL
[2]; DIO mice, APC 20mg/kg, group mean, n=6
  plasma glucagon in DIO, mean: 102.8 ng/dL
[2]; [5]
  plasma glucagon in DIO: 108 ng/dL and 94.83 ng/dL and 125.84 ng/dL and 81.38 ng/dL and 93.2 ng/dL and 113.74 ng/dL
  plasma leptin in DIO: 64.99 ng/mL and 59.47 ng/mL and 49.46 ng/mL and 54.02 ng/mL and 54.7 ng/mL and 57.91 ng/mL
[2]; Figure 8e, APC 10mg/kg, group mean, n=5, VEH mean 5.378
  Plasma Insulin, mean: 4.88 ng/mL
[2]; Figure 8e, APC 10mg/kg, individual mice
  Plasma Insulin: 5.624 ng/mL and 3.217 ng/mL and 4.483 ng/mL and 6.089 ng/mL and 4.987 ng/mL
[2]; Figure 8e, APC 20mg/kg, group mean, n=5, VEH mean 5.378
  Plasma Insulin, mean: 4.334 ng/mL
[2]; Figure 8e, APC 20mg/kg, individual mice
  Plasma Insulin: 3.191 ng/mL and 4.624 ng/mL and 5.384 ng/mL and 4.549 ng/mL and 3.923 ng/mL
[2]; db/db mice
  leptin levels: effectively reduced
  plasma ghrelin: no significant effects
[2]; db/db mice, group mean, n=6
  Plasma Insulin, mean: 12.2 ng/mL
  plasma glucagon in db/db, mean: 266 ng/dL
[2]; db/db mice, individual mouse
  Plasma Insulin: 9.327 ng/mL and 11.259 ng/mL and 11.886 ng/mL and 10.188 ng/mL and 13.359 ng/mL and 17.190 ng/mL
  plasma glucagon in db/db: 251.14 ng/dL and 274.24 ng/dL and 342.64 ng/dL and 244.9 ng/dL and 187.78 ng/dL and 295.42 ng/dL
[2]; db/db mice, ip APC, single animals
  plasma Ghrelin in db/db ip APC: 12.653 ng/mL and 14.269 ng/mL and 10.885 ng/mL and 7.483 ng/mL and 8.587 ng/mL
[2]; db/db mice, group mean (Figure 8l), n=5, VEH mean 1.196
  Plasma leptin, mean of column B (APC): 0.714 ng/mL
[2]; db/db mice, individual animals (Figure 8l), n=5
  Plasma leptin: 0.7357 ng/mL and 0.6738 ng/mL and 0.8588 ng/mL and 0.5919 ng/mL and 0.7100 ng/mL
